Laboratory results taken from US20240108634A1, “COMPOSITIONS AND METHODS FOR INHIBITING YAP” (The United States Government as represented by the …, priority 2021, published 2024).

Target: T1, full-length human YAP1 (Homo sapiens, UniProt P46937)
T1 construct: purified recombinant HA-tagged full-length human YAP1; made in house
Test: Inhibitor-coupled bead binding of recombinant HA-tagged YAP
Conditions: immunoblot of bound HA-YAP
Procedure: FIGS. 1A-G show the identification of a YAP1-TEAD1 binding interface inhibitor. […] The Gal4 DBD was fused to residues 50-171 of human YAP1 and the Gal4 AD was fused to residues 194-411 of human TEAD1. These fusions were expressed in yeast containing reporters harboring Gal4 upstream activating sequences (UAS). […] Yeast expressing either p53-DBD and SV40 large T antigen-AD fusions or YAP1-DBD and TEAD1-AD fusions were plated on selective media. Compounds were pinned onto the plate surfaces by robotic transfer and subsequently examined for halo formation (indicated by red circles). […] Pull-down products were analyzed by SDS-PAGE and silver staining. […] Raw binding sensorgrams obtained at each concentration were fitted to a 1:1 binding model and Kon, Koff and KD were calculated by simultaneous non-linear regression analyses.
Protein and mRNA analyses, immunoprecipitation, in vitro bead-coupled inhibitor binding assays and HPLC analyses. […] Antigen-antibody complexes were detected using appropriate horseradish peroxidase-conjugated secondary antibodies (GE Healthcare) and enhanced chemiluminescence (Amersham ECL Prime). […] For quantitative RT-PCR, extraction of RNA was performed using Trizol® (Life Technologies). Total RNA was then quantified and integrity assessed using an Agilent 2100 Bioanalyzer (Agilent Technology). […]

T1 sequence (P46937 whole entry): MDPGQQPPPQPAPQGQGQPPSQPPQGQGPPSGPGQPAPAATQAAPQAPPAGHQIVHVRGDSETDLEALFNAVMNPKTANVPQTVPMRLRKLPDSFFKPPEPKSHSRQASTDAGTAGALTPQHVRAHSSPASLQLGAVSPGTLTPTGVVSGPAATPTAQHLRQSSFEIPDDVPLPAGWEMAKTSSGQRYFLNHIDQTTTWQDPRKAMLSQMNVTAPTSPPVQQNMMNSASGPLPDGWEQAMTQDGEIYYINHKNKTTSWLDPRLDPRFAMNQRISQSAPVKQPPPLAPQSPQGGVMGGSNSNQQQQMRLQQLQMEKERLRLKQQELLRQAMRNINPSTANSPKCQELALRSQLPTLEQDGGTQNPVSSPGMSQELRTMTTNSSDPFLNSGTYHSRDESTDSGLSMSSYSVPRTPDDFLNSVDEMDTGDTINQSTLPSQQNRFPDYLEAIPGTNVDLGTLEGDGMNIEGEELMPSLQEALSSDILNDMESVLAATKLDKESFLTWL

SMILES: COc1ccc(-c2cc(-c3ccccc3)nc3c2CC(=O)Nc2ccccc2-3)cc1OC [NSC682769]
- Binding of YAP to compound-coupled beads: associated strongly
